Assay results as given in paper PMC5698301, “Dual Coating of Liposomes as Encapsulating Matrix of Antimicrobial Peptides: Development and Characterization” (Frontiers in Chemistry, 2017).
Peptide text beside a SMILES is read from it.

Key:
[1] = tested on: pepsin; conditions: in all liposomal formulations; SGF with pepsin 3.2 mg/mL, 2 h, 37 ± 0.5°C, HPLC
Description: The dissolution experiment was performed according to Liu et al. ([2012]) with some modifications. Different samples were placed in a simulated gastric fluid for 2 h (SGF: 0.2 g of NaCl dissolved in 0.7 mL of HCl and filled up to 100 ml with distilled water then pepsin was added at a concentration of 3.2 mg/mL). Then, the dissolution was performed in simulated intestinal fluid (SIF: 6.8 g of potassium phosphate monobasic sodium hydroxide with a pH adjusted to 7.4 with 2N sodium hydroxide to a volume of 100 mL and a concentration of 0.2 mg/mL bovine bile extract), the pH was adjusted to 7.4. Pancreatin was added at a concentration of 20 mg/mL (equivalent to a protease activity of 500 U/mL). The dissolution was performed for 4 h at a temperature of 37 ± 0.5°C with stirring at 140 rpm. To perform the experiment 3 ml of the individual suspensions of liposomes was added to 3 mL of gastric fluid and samples of 500 μL of medium are removed at intervals of 1 h for the gastric fluid portion and at 0, 15, 30, 60, 120, 240 min during the intestinal dissolution. The contents MccJ25 samples were determined by HPLC. […] The blank was performed in similar conditions with a solution of non-encapsulated MccJ25.

[2] = tested on: S. enteritidis; assay: Microtitration assay (critical dilution), activity in AU; format: cell-based, Salmonella enteritidis
Description: The second activity test was carried out using the same strain (S. enteritidis) in polystyrene 96-well micro-assay plates (Microtest, Becton–Dickinson Labware, MD, USA) as described by Ennaas et al. ([2016]). Briefly, fractions were added to microplates and diluted 2-folds with LB broth. Then, wells were seeded with ~1 × 10^4 CFU of strain per well using log-phase culture diluted in LB to 0.5–1.0 × 10^6 CFU ml^−1. The plates were incubated for 18 h at 37°C. After incubation, OD at 595 nm was measured using an Infinite® F200 PRO photometer (Tecan US Inc., Durham, NC). Antimicrobial activity results were expressed as arbitrary units per milliliter (AU ml^−1) that calculated as follows:
AU ml^−1 = (1,000/100) × 2 n, where n = number of inhibited wells.

Question: How did the “Resistance of MccJ25 to gastric digestion” value [1] turn out when `CC[C@H](C)[C@H](NC(=O)CNC(=O)[C@@H](NC(=O)[C@H](Cc1ccccc1)NC(=O)[C@H](Cc1ccc(O)cc1)NC(=O)[C@@H]1CCC(=O)NCC(=O)NCC(=O)N[C@@H](C)C(=O)NCC(=O)N[C@@H](Cc2cnc[nH]2)C(=O)N[C@@H](C(C)C)C(=O)N2CCC[C@H]2C(=O)N1)C(C)C)C(=O)NCC(=O)N[C@H](C(=O)N1CCC[C@H]1C(=O)N[C@H](C(=O)N[C@@H](CO)C(=O)N[C@@H](Cc1ccccc1)C(=O)N[C@@H](Cc1ccc(O)cc1)C(=O)NCC(=O)O)[C@@H](C)CC)[C@@H](C)O` [MccJ25, microcin J25] (HELM PEPTIDE1{G.G.A.G.H.V.P.E.Y.F.V.G.I.G.T.P.I.S.F.Y.G}$PEPTIDE1,PEPTIDE1,1:R1-8:R3$$$V2.0) was run?
Answer: resisted gastric digestion

Question: `CC[C@H](C)[C@H](NC(=O)CNC(=O)[C@@H](NC(=O)[C@H](Cc1ccccc1)NC(=O)[C@H](Cc1ccc(O)cc1)NC(=O)[C@@H]1CCC(=O)NCC(=O)NCC(=O)N[C@@H](C)C(=O)NCC(=O)N[C@@H](Cc2c[nH]cn2)C(=O)N[C@@H](C(C)C)C(=O)N2CCC[C@H]2C(=O)N1)C(C)C)C(=O)NCC(=O)N[C@H](C(=O)N1CCC[C@H]1C(=O)N[C@H](C(=O)N[C@@H](CO)C(=O)N[C@@H](Cc1ccccc1)C(=O)N[C@@H](Cc1ccc(O)cc1)C(=O)NCC(=O)O)[C@@H](C)CC)[C@@H](C)O` [MccJ25, microcin J25] (HELM PEPTIDE1{G.G.A.G.H.V.P.E.Y.F.V.G.I.G.T.P.I.S.F.Y.G}$PEPTIDE1,PEPTIDE1,1:R1-8:R3$$$V2.0; C-terminus assumed; bridges inferred) was tested. Which “Specific activity (AU/mg)” value ([2]; activity per mg protein (Lowry method)) did it give?
Answer: 181,352 AU/mg

Question: And the “Inhibitory activity (AU/ml)” value ([2]; microtitration assay, S. enteritidis, 2-fold dilutions in LB, 18 h at 37°C, OD 595 nm)?
Answer: 524,288 AU/ml
